From patent US9670226B2, “Sesquiterpenoids” (National Institute of Biological Sciences, Beijing, priority 2014, dated 2017)

Columns and labels:
NF-κB activation = NF-κB activation (SAR analogs and biotin probes)
Description: In order to evaluate which of them is critical for the binding of 223, we individually mutated these nine cysteine residues of IKKβ into alanines.

phosphorylation of IκBα = assay: LPS induced NF-κB activation: IκBα phosphorylation in RAW264.7 cells (western blot); format: cell-based, mouse; details: Raw 264.7 cells pre-incubated with 4 μM for 2 h, 20 ng/ml LPS, 20 minutes, western blot
IKKβ [1] = molecular target: T1, IKKβ (Homo sapiens, UniProt O14920); assay: IKKβ kinase inhibition; format: biochemical; details: table of derivatives; read-out: IKKβ (IC50)
T1 sequence (O14920 1-756): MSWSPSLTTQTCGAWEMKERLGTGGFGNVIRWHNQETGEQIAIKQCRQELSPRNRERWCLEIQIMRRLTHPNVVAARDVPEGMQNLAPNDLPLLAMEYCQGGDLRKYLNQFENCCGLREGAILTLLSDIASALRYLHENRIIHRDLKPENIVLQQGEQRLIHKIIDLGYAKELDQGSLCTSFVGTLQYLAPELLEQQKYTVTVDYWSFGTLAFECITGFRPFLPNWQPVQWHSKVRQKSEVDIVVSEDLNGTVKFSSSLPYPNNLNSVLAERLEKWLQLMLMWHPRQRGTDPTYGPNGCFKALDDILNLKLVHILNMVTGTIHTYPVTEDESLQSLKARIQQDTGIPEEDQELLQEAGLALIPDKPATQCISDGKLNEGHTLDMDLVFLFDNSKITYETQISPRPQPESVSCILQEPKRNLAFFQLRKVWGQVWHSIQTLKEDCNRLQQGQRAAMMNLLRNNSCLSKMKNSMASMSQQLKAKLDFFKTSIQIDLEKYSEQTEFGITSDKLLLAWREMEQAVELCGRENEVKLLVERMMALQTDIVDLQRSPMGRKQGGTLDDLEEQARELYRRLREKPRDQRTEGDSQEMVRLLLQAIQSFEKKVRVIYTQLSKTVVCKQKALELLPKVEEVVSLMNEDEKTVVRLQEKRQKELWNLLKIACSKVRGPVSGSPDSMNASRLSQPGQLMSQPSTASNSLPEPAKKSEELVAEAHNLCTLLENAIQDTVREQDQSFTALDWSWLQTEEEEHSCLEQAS
Text: To further explore how (+)-ainsliadimer A inactivates IKKα/β, we conducted the molecular dynamics (MD) simulations using the first crystal structure of IKKβ^29 to sample the conformational states of IKKβ upon 223 binding. […] We next asked whether 223 could directly affect IKKβ kinase activity.

[2] = tested on: BGC-823 human gastric adenocarcinoma xenograft; assay: BGC-823 xenograft in nude mice; format: in vivo; details: 223 25 mg/kg, qdx8; HCPT 30 mg/kg, q6dx2
Description: Next we further examined anti-tumor effect of 223 in vivo. Nude mice bearing a BGC-823 human gastric adenocarcinoma xenograft were treated with vehicle or 223 (25 mg/kg, qdx8) or 10-hydroxycamptothecin (HCPT), a widely used anti-tumor drug (30 mg/kg, q6dx2).

IKKβ [3] = molecular target: T1, IKKβ; assay: Pull-down from 293T cell lysates with streptavidin agarose beads; format: binding
Description: (§1) To identify cellular proteins interacting with 223, we performed pull-down experiments using Probe and NC as the positive and negative probe, respectively. 293T cell lysates were incubated with streptavidin agarose beads which were pre-coupled with positive probe or negative probe. The proteins precipitated by streptavidin agarose beads were resolved by SDS-PAGE and stained with silver. […] We further monitored the presences of IKKα and IKKβ in the precipitates by immunoblotting.

IKKα = molecular target: T2, IKKα (Homo sapiens, UniProt O15111); assay: as above; format: binding
T2 construct: endogenous in cells; host or cells: 293T
Description: as §1

recombinant Flag-IKKα = molecular target: T3, recombinant Flag-IKKα (Homo sapiens, UniProt O15111); assay: Binding to purified recombinant protein (SDS-PAGE, streptavidin blot); details: increasing concentrations
T3 construct: made in house; host or cells: 293T cells (transient transfection, anti-Flag purification)
Description: To determine whether 223 directly binds to IKKα and IKKβ, we generated recombinant IKKα and IKKβ proteins for further analysis. 293T cells were transfected with Flag-IKKα or Flag-IKKβ plasmid, and the recombinant Flag-IKKα or Flag-IKKβ was captured by anti-Flag agarose beads and was then eluted off the beads using Flag peptide. The purified Flag-IKKα or Flag-IKKβ was incubated with DMSO or increasing concentrations of Probe, and then the mixtures were resolved by SDS-PAGE, followed by immunoblotting with streptavidin or anti-Flag antibody.

[4] = tested on: IKKβ C215 containing peptides #3 and #4; assay: Peptide binding by MALDI-TOF; design: species or system human
[5] = tested on: IKKβ C46 containing peptide (#1, #2; amino acids 41-53); assay: Peptide binding by MALDI-TOF; design: species or system human
Description: (§2) This peptide was tested for binding to 223 and probe by using MALDI-TOF (Matrix-Assisted […] Desorption/Ionization Time of Flight). m/z values at 2,047.978 and 2,479.259 were well matched with the calculated weights of #1+223 and #1+Probe, respectively. […] As expected, the peptide #2 containing amino acids 41-53 of human IKKβ interacted with both 223 and probe.

[6] = molecular target: T4, IKKβ C46 containing peptide (#1, #2; amino acids 41-53) (Homo sapiens, UniProt O14920); assay: Peptide binding by MALDI-TOF
T4 construct: encompasses amino acids 41-53 of human IKKβ; made in house; host or cells: chemical peptide synthesis
Description: as §2

[7] = tested on: peptides 1A, 2A, 1S and 2S (cysteine 46 replaced by alanine or serine); assay: Peptide binding by MALDI-TOF; design: species or system human

T3 sequence (O15111 whole entry): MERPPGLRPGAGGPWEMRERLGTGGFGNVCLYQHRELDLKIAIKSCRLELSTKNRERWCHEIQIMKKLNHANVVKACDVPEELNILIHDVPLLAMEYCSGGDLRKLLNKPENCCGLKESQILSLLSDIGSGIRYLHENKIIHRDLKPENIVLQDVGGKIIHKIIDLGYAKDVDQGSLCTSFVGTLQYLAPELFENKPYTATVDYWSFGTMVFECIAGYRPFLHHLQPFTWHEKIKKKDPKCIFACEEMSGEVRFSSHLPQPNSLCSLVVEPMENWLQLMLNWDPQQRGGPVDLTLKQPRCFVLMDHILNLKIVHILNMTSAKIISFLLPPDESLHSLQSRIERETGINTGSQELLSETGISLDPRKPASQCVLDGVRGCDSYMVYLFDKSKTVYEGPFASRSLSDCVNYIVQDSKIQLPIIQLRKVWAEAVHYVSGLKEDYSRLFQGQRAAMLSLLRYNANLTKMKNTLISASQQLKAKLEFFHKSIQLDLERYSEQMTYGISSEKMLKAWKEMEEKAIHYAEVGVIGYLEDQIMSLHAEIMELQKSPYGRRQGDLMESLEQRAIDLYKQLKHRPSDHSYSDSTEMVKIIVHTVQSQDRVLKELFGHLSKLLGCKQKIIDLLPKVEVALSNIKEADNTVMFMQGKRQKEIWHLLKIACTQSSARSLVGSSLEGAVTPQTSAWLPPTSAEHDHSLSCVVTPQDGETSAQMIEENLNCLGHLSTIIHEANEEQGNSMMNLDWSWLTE
T2 sequence (O15111 whole entry): as above

SMILES: C=C1C(=O)O[C@@H]2[C@@H]3[C@@H](C[C@H](O)[C@]34CC[C@]3(O)[C@@H]5[C@H]6OC(=O)C(=C)[C@@H]6CCC(=C)[C@@H]5C[C@]43O)C(=C)CC[C@@H]12 [Compound 224]
- biological activity (initial SAR) (NF-κB activation): fully retain the biological activity

SMILES: C=C1C(=O)O[C@@H]2[C@@H]3[C@@H](C[C@@]4(O)[C@]3(O)CC[C@]43C(=O)C[C@H]4C(=C)CC[C@H]5C(=C)C(=O)O[C@@H]5[C@H]43)C(=C)CC[C@@H]12 [Compound 1]
- phosphorylation of IκBα (phosphorylation of IκBα): effectively blocked
- IC50 (IKKβ [1]): 0.0757 µM

SMILES: C=C1CC[C@H]2C(CN(C)C)C(=O)O[C@@H]2[C@@H]2[C@H]1C[C@@]13OC(C)(C)O[C@@]21CC[C@]31C(=O)C[C@H]2C(=C)CC[C@H]3C(CN(C)C)C(=O)O[C@@H]3[C@H]21 (stereo partly shown) [Compound 3]
- phosphorylation of IκBα (phosphorylation of IκBα): effectively blocked
- IC50 (IKKβ [1]): 0.0418 µM

SMILES: C=C1CC[C@@H]2[C@H](OC(=O)[C@H]2C)[C@@H]2[C@H]1C[C@@]1(O)[C@]2(O)CC[C@]12C(=O)C[C@H]1C(=C)CC[C@@H]3[C@H](OC(=O)[C@H]3C)[C@H]12 [Compound 225]
- biological activity (initial SAR) (NF-κB activation): inactive

SMILES: C=C1C(=O)O[C@@H]2[C@@H]3[C@@H](C[C@@]45OC(C)(C)O[C@@]34CC[C@]53C(=O)C[C@H]4C(=C)CC[C@H]5C(=C)C(=O)O[C@@H]5[C@H]43)C(=C)CC[C@@H]12 [Compound 2]
- phosphorylation of IκBα (phosphorylation of IκBα): effectively blocked
- IC50 (IKKβ [1]): 0.056 µM

SMILES: CC[C@@]1(O)C(=O)OCc2c1cc1n(c2=O)Cc2cc3cc(O)ccc3nc2-1 [HCPT, 10-hydroxycamptothecin, reference compound]
- side effects and body weight during administration [2]: significant body weight loss

SMILES: C=C1C(=O)O[C@@H]2[C@@H]3[C@@H](C[C@H](OC(=O)CCOCCOCCOCCNC(=O)CCCC[C@@H]4SC[C@@H]5NC(=O)N[C@@H]54)[C@]34CC[C@]3(O)[C@@H]5[C@H]6OC(=O)C(=C)[C@@H]6CCC(=C)[C@@H]5C[C@]43O)C(=C)CC[C@@H]12 [Probe]
- pull-down of IKKβ (immunoblotting) (IKKβ [3]): specifically pulled down
- pull-down of IKKα (immunoblotting) (IKKα): specifically pulled down
- interaction with recombinant IKKα (recombinant Flag-IKKα): strong interaction
- association with peptides #3 and #4 [4]: no association
- interaction with peptide #2 [5]: interacted
- binding to peptide #1 [6]: could bind
- binding to peptides 1A, 2A, 1S and 2S [7]: lost the ability to bind
